Source: patent publication US6034113A, “Derivatives of 1,3,4-oxadiazolone” (Bristol-Myers Squibb Company, priority 1999, dated 2000)

What was measured:
[1] = tested on: focal cerebral ischemia in the Wistar rat; assay: Focal stroke model, permanent MCA/CCA occlusion; assay type: in vivo; conditions: 1 mg/kg intravenously, single bolus two hours after MCA occlusion; measured 24 hours after MCAO; vs vehicle-treated (water) control
Procedure: To determine the ability of the compounds of the present invention to reduce cell loss resulting from neuronal ischemia, a standard focal cerebral ischemia is induced by permanent occlusion of the left middle cerebral artery (MCA) and common carotid artery (CCA) with one hour occlusion of the right CCA in the Wistar rat. The surgeries are performed using the sub-temporal approach of A. Tamura, et al., J. Cereb. Blood Flow Metab., 1, pp. 53-60, (1981) and its modifications [K. Osbome, et al., J. Neurol Neurosurg. Psychiatry, 50, pp. 402-410 (1987) and S. Menzies, et al., Neurosurgery, 31, pp. 100-107, (1992).]
The compound of Example 13 was evaluated in the focal stroke model involving permanent occlusion of the left MCA (MCAO) and CCA (CCAO) and temporary occlusion of the right CCA in the Wistar rat. This procedure results in a reliably large neocortical infarct volume that is measured by means of vital dye exclusion in serial slices through the brain 24 hours after MCAO. In the present test, compounds were administered using an i.v. or i.p. route of administration two hours after occlusion.

[2] = Rapid screen of prodrug hydrolysis and drug release in plasma; assay type: in vitro ADME; conditions: 10 ug/mL in fresh rat plasma at 37° C.; stock 1 mg/mL in PEG-400; analysis 5 minutes after incubation
Procedure: A rapid screen to determine the ability of prodrugs to hydrolyze and release the drug (compound of Example 1) is conducted as follows. A 1 mg/mL stock solution of the prodrug is prepared in distilled water or acetonitrile or PEG-400. Plasma from freshly collected rat or human blood is used in this assay. To 1 mL of plasma at 37° C. was added 10 μL of stock solution of prodrug and mixed gently. Immediately after the mixing, 100 μL of plasma was removed and quenched with 300 μL of acetontrile (Zero time sample). Samples were also obtained at 30 minutes and quenched immediately. The quenched samples were centrifuged to obtain a clear supernatant for analysis. The stock solution, T=0 and T=30 samples were analyzed by a HPLC assay that separates the drug from the prodrug. Based on the relative peak areas of prodrug and drug in these samples, different prodrugs are characterized as fast, moderate and slow release agents. For example, in this model, the compound of Example 13 was dissolved in PEG-400 at a concentration of 1 mg/mL and incubated at 10 ug/mL in fresh rat plasma at 37° C.

[3] = tested on: non-BK native currents in the oocytes; assay: Effect on non-BK native currents (IBTX-insensitive) in oocytes; assay type: cell-based, Xenopus; conditions: at the tested concentration; current remaining in presence of 50 nM IBTX
Procedure: (§1) The ability of the compound of Example 1 to open BK channels and increase whole-cell outward (K^+) BK-mediated currents was assessed under voltage-clamp conditions by determining their ability to increase cloned mammalian (mSlo or hSlo) BK--mediated outward current heterologously expressed in Xenopus oocytes [Butler, A., et al., Science, 261, pp. 221-224 (1993); and Dworetzky, S. I., et al., Mol. Brain Res., 27, pp.189-193 (1994)]. The two BK constructs employed represent nearly structurally identical homologous proteins, and have proven to be pharmacologically identical in our tests. To isolate BK current from native (background, non-BK) current, the specific and potent BK channel-blocking toxin iberiotoxin (IBTX) [Galvez, A., et al., J. Biol. Chem, 265, pp. 11083-11090 (1990)] was employed at a supramaximal concentration (50 nM). The relative contribution of BK channels current to total outward current was determined by subtraction of the current remaining in the presence of IBTX (non-BK current) from the current profiles obtained in all other experimental conditions (control, drug, and wash). […]

[4] = tested on: cloned mammalian (mSlo or hSlo) BK; assay: BK-mediated outward current, two-electrode voltage clamp in Xenopus oocytes; assay type: cell-based; conditions: 1 μM; at least 5 oocytes; mSlo or hSlo expressed in Xenopus oocytes
Procedure: as §1

| Compound | reduction of cortical infarct volume [1] | conversion of prodrug to the compound of Example 1 in plasma [2] | effect on non-BK native currents in the oocytes [3] | increase of BK current, % of control of IBTX-sensitive current [4] [%] |
| --- | --- | --- | --- | --- |
| C[N+](C)(C)CCCC(=O)OCOc1ccc(Cl)cc1Cn1nc(-c2ccc(C(F)(F)F)cc2)oc1=O [Example 13, 3-[[[[4-Chloro-2-[[5-[4-(trifluoromethyl)phenyl]-2,3-dihydro-2-oxo-1,3,4oxadiazol-3-yl]methyl]phenoxy]methoxy]carbonyl]propyl]trimethylammonium methanesulfonate] | about 17% | conversion of the compound of Example 13 to the compound of Example 1 |  |  |
| O=c1oc(-c2ccc(C(F)(F)F)cc2)nn1Cc1cc(Cl)ccc1O [Example 1, 3-[(5-Chloro-2-hydroxyphenyl)methyl]-5-[4-(trifluoromethyl)phenyl]-1,3,4-oxadiazol-2(3H)-one] |  |  | did not effect non-BK native currents | 126 |
